Experimental data published in US20160250277A1, “[…] OPIOID RECEPTOR AGONISTS FOR PREVENTING, INHIBITING OR TREATING NAUSEA AND VOMITING” (CARA THERAPEUTICS, INC., priority 2013, published 2016).

How the values were obtained:
[1] = system: acute and chronic visceral, inflammatory and neuropathic pain; assay: standard preclinical pain models; format: in vivo
Experimental: (§1) The analgesic effect of CR845 was recordable within 15 minutes post-administration and lasted for up to 18 hours following single-dose administration.

[2] = system: “Chung Model” of neuropathic pain; assay: “Chung Model” of neuropathic pain (paw withdrawal threshold); format: in vivo, rats; conditions: for blockade of CR845 effect by kappa antagonist into injured paw: intraplantar 0.2 mg, 15 min prior to CR845 1 mg/kg, rats
Experimental: FIG. 1: Efficacy of CR845 in “Chung Model” of neuropathic pain is blocked with Peripheral (Intrapaw) administration of a kappa antagonist (norBNI) in rats. *** denotes p<0.001 compared to vehicle-treated controls (two-way ANOVA). Vehicle or Nor-BNI was administered intraplantarly (0.2 mg) 15 min prior to CR845. Injection (1 mg/kg). N=6 male rats/group, mean±SEM.
The peripheral mechanism of action of CR845 is supported preclinically by both biochemical in vitro assays and in vivo functional pharmacological studies. […] Moreover, in standard preclinical pain models, such as the “Chung Model” of neuropathic pain, the analgesic action of CR845 was blocked with kappa opioid receptor antagonists administered directly to the local site of injury, indicating a peripheral site of action for CR845 (FIG. 1). In the “Chung Model”, neuropathic pain is induced experimentally by ligating spinal nerves mediating sensation for a hind limb. […] Sets of different thickness filaments are used to test sensitivity, each of which is designed to produce a given force (in grams) upon bending after contact. By testing with these filaments, the minimum force to evoke a withdrawal response defines the paw withdrawal threshold. The nerve injury produces a marked reduction in paw withdrawal thresholds (increased sensitivity to force) in response to probing with the filaments.

[3] = pharmacokinetic studies, drug in extracted brain tissue; format: in vivo; conditions: animals, analgesic and supra-analgesic doses
[4] = system: pro-inflammatory mediators; assay: production and release of pro-inflammatory mediators; conditions: preclinical
Experimental: as §1

[5] = system: patients undergoing laparoscopic hysterectomy; conditions: human, in vivo
[6] = system: patients following bunionectomy surgery; conditions: human, in vivo
human subjects = conditions: in vivo

SMILES: CC(C)C[C@@H](NC(=O)[C@@H](Cc1ccccc1)NC(=O)[C@H](N)Cc1ccccc1)C(=O)N[C@H](CCCCN)C(=O)N1CCC(N)(C(=O)O)CC1 [CR845, D-Phe-D-Phe-D-Leu-D-Lys-[ω(4-aminopiperidine-4-carboxylic acid)]-OH]
- duration of analgesic effect ([1]; following single-dose administration): up to 18 hours
- onset of analgesic effect post-administration ([1]; preclinical pain models): ≤ 15 min
- attenuation of pain in preclinical pain models ([1]; standard preclinical pain models): successfully attenuated acute and chronic visceral, inflammatory and neuropathic pain in a dose-dependent manner
- paw withdrawal threshold (neuropathic pain) ([2]; I.V. CR845 1 mg/kg, male rats): reduces this neuropathic pain as demonstrated by a subsequent increase in the withdrawal threshold
- concentration of drug in extracted brain tissue [3]: no measurable concentrations of drug in extracted brain tissue
- production and release of pro-inflammatory mediators [4]: decreased the production and release of pro-inflammatory mediators
- PID for 0-4, 0-8 and 0-16 hour time intervals vs Placebo/Placebo [5]: statistically significant improvements
- Responders in global evaluation of study medication vs placebo [5]: higher percentage of patients
- SPID over 0-8, 0-12 and 0-16 time periods vs Placebo/Placebo [5]: reduced pain intensity compared to the Placebo/Placebo group in a statistically significant manner
- greater reduction in pain intensity at 24 hours vs Placebo/Placebo [5]: approximately 60%
- improvement in mean SPID values 0-4 hour vs Placebo/Placebo [5]: 3.5 fold
- mean TOTPAR0-2 (pain relief within first 2 hours) vs Placebo/Placebo [5]: statistically superior pain relief
- mean TOTPAR 0-12 hour interval vs Placebo/Placebo [5]: reached statistical significance
- mean TOTPAR scores across all intervals vs Placebo/Placebo [5]: numerically superior
- pain intensity for 0-8 and 0-16 hour time intervals vs Placebo/Placebo [5]: statistically significant decreases in pain intensity
- patients who experienced nausea [5]: 26.1%
- patients who experienced vomiting [5]: 1.7%
- pruritus reported vs placebo [5]: less pruritus
- reduction of incidence of nausea vs placebo [5]: approximately 50%
- reduction of incidence of vomiting vs placebo [5]: ~80%
- reported pain relief (TOTPAR) for 0-4, 2-4 and 0-8 hour time periods [5]: statistically significant improvements in reported pain relief
- mean PID from baseline at each time interval vs Placebo/Placebo ([5]; iv): numerically superior
- blood sodium increase (hypernatremia), share of total patients ([5]; iv, 0.04 mg/kg): 14%
- SPID0-36 vs placebo [6]: statistically significant
- SPID0-48 vs placebo [6]: statistically significant
- SPID scores 0-24, 0-36, 0-48 vs placebo [6]: Numerical improvements in SPID scores
- acute psychiatric side effects [6]: no evidence of acute psychiatric side effects
- cases of somnolence reported [6]: seven
- mean PID from baseline at each time interval across 48 hours vs placebo [6]: numerically superior
- mean plasma sodium concentration vs normal range [6]: not outside the normal physiological range
- most frequent TEAEs (greater than 10%) [6]: transient facial tingling and somnolence
- pain intensity differences 0-12 hour time interval vs placebo [6]: Statistically significant reductions in pain intensity differences
- pain intensity differences 0-36 hour time interval vs placebo [6]: Statistically significant reductions in pain intensity differences
- reduction of incidence of nausea vs placebo [6]: 60%
- reduction of incidence of vomiting vs placebo [6]: 80%
- rise of mean plasma sodium concentration from baseline [6]: approximately 3%
- SPID0-24 vs placebo ([6]; iv, 0.005 mg/kg): statistically significant reduction in pain intensity compared to placebo
- drug-related respiratory depression (human subjects): no evidence of drug-related respiratory depression

SMILES: Oc1ccc2c3c1O[C@H]1c4[nH]c5c(c4C[C@@]4(O)[C@@H](C2)N(CC2CC2)CC[C@]314)C[C@@]1(O)[C@H]2Cc3ccc(O)c4c3[C@@]1(CCN2CC1CC1)[C@H]5O4 [nor-BNI, nor-binaltorphamine]
- blockade of CR845 effect by kappa antagonist into injured paw [2]: significantly reduces the effect of CR845
- blockade of CR845 effect by kappa antagonist into injured paw ([2]; listed as norBNI): blocked
